According to PubChem BioAssay (NCI):
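Results reflect a 48-hour exposure of cells in 96-well plates to compound at five concentrations. Definition used: TGI = concentration required for complete inhibition of growth.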

Experiments:
Assay in all cases: NCI tumour cell line growth inhibition, 48 h
[1] = system: IGROV1 ovarian
[2] = system: HS 578T breast
[3] = system: HCT-15 colon
[4] = system: EKVX NSCLC
[5] = system: HCT-116 colon
[6] = system: SF-295 CNS
[7] = system: SF-268 CNS
[8] = system: 786-0 renal
[9] = system: RXF 393 renal
[10] = system: HT29 colon
[11] = system: KM12 colon
[12] = system: MDA-MB-435
[13] = system: OVCAR-8 ovarian
[14] = system: T-47D breast
[15] = system: DU-145 prostate
[16] = system: A549 NSCLC
[17] = system: UACC-257 melanoma
[18] = system: MCF7 breast
[19] = system: LOX IMVI melanoma
[20] = system: OVCAR-5 ovarian
[21] = system: K-562 leukemia
[22] = system: ACHN renal
[23] = system: NCI-H23 lung
[24] = system: UACC-62 melanoma
[25] = system: HOP-62 NSCLC
[26] = system: NCI/ADR-RES ovarian
[27] = system: HL-60(TB) leukemia
[28] = system: UO-31 renal
[29] = system: TK-10 renal
[30] = system: SN12C renal
[31] = system: CCRF-CEM leukemia
[32] = system: OVCAR-4 ovarian
[33] = system: MDA-N
[34] = system: SK-OV-3 ovarian
[35] = system: HOP-92 NSCLC
[36] = system: NCI-H522 lung
[37] = system: SF-539 CNS
[38] = system: MALME-3M melanoma
[39] = system: SK-MEL-2 melanoma
[40] = system: SNB-19 CNS
[41] = system: SNB-75 CNS
[42] = system: MDA-MB-231 breast
[43] = system: NCI-H460 lung
[44] = system: COLO 205 colon
[45] = system: CAKI-1 renal
[46] = system: BT-549 breast
[47] = system: NCI-H226 lung
[48] = system: A498 renal
[49] = system: RPMI-8226 leukemia
[50] = system: M14 melanoma
[51] = system: SW-620 colon
[52] = system: OVCAR-3 ovarian

CCN1C(=O)C(=C/C=C/C=C2/N(C)c3ccccc3C2(C)C)C(=O)N(CC)C1=S
TGI [1]: > 100 µM | TGI [2]: > 100 µM | TGI [3]: > 100 µM | TGI [4]: > 100 µM | TGI [5]: > 100 µM | TGI [6]: > 100 µM | TGI [7]: > 100 µM | TGI [8]: > 100 µM | TGI [9]: > 100 µM | TGI [10]: > 100 µM | TGI [11]: > 100 µM | TGI [12]: > 100 µM | TGI [13]: > 100 µM | TGI [14]: > 100 µM | TGI [15]: > 100 µM | TGI [16]: > 100 µM | TGI [17]: > 100 µM | TGI [18]: > 100 µM | TGI [19]: > 100 µM | TGI [20]: > 100 µM | TGI [21]: > 100 µM | TGI [22]: > 100 µM | TGI [23]: > 100 µM | TGI [24]: > 100 µM | TGI [25]: > 100 µM | TGI [26]: > 100 µM | TGI [27]: > 100 µM | TGI [28]: > 100 µM | TGI [29]: > 100 µM | TGI [30]: > 100 µM | TGI [31]: > 100 µM | TGI [32]: > 100 µM | TGI [33]: > 100 µM | TGI [34]: > 100 µM | TGI [35]: > 100 µM | TGI [36]: > 100 µM | TGI [37]: > 100 µM | TGI [38]: > 100 µM | TGI [39]: > 100 µM | TGI [40]: > 100 µM | TGI [41]: > 100 µM | TGI [42]: > 100 µM | TGI [43]: > 100 µM | TGI [44]: > 100 µM | TGI [45]: > 100 µM | TGI [46]: 70.9 µM | TGI [47]: > 100 µM | TGI [48]: > 100 µM | TGI [49]: > 100 µM | TGI [50]: > 100 µM | TGI [51]: > 100 µM | TGI [52]: > 100 µM
